Measured values taken from US20060013871A1 (priority 2003, published 2006).

Assay: Particle size analysis in water suspension, Beckman LS230
Assay type: physicochemical
Settings: feedstock of Example 5, water suspension, Beckman Coulter LS230
Method: The vessel was charged with 405 g of CO2. The agitator rpm was 1,776. The mixing process was run for 1 hr. The final temperature and pressure were 28° C. and 1,434 psig, respectively.
Particle size analysis was done in water suspension using Beckman LS230, however it is known that in an aqueous medium Poloxamer is likely to dissolve.

CC(C)Cc1ccc(C(C)C(=O)O)cc1 (stereo not drawn) [Ibuprofen]
d16 particle size of feedstock: 21.8 micron | d50 particle size of feedstock: 41.21 microns | d84 particle size of feedstock: 71.05 microns
